The structures appear in SMILES notation.

This assay addresses T1, 5-α-reductase type I (Homo sapiens, UniProt P18405).
T1 sequence (P18405 1-259): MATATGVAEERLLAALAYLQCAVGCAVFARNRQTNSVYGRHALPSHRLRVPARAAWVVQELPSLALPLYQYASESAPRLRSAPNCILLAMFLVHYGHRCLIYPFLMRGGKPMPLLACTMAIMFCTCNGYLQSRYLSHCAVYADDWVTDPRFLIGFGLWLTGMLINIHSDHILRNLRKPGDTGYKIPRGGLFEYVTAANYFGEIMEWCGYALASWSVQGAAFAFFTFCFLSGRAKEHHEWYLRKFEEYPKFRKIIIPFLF
The format is biochemical.

As for `CCCCCCCCCCCCCCC[C@@H](O)[C@@H](N)CO` (racemic) [sphinganine], the IC50 was 6.5±0.33 and 6.8±0.1 μM.

Turning to `CC(C)(C)NC(=O)[C@H]1CC[C@H]2[C@@H]3CC[C@H]4NC(=O)C=C[C@]4(C)[C@H]3CC[C@]12C` [finasteride], the IC50 turned out to be 420 ± 20 nM.

For the origin of these results see paper PMC5021059 (Clinical, Cosmetic and Investigational Dermatology, 2016).
